Patent US20080220069A1, “Long Acting Injectable Crystal Formulations of Estradiol Metabolites and Methods of Using Same” (PR PHARMACEUTICALS, INC., priority 2004, published 2008)
One block for each compound: values may come before it.

Assays:
[1] = room temperature
[2] = In vivo pharmacokinetics of altered crystal form (hemi hydrate) of 2ME (Example 6); details: rat, 5 mg/rat subcutaneous, hemi hydrate crystals approx. 10 μm, by day 28
Method: A solution of 2-methoxyestradiol (2ME) (Tetrionics, Madison, Wis.) was made in n-methylpyrrolidone at a 10% w/v concentration. One volume of the 2ME solution was added to 1000 volumes of water stirring rapidly at 23° C. The mixture was allowed to stir prior to the addition of sodium dodecyl sulfate (SDS) to a final concentration of 0.1% w/v. The 2ME was collected by sedimentation and washed twice with 0.1% SDS.
(§1) On day 0, each animal in the treatment group (n=6) received 5 mg/rat of 2ME in 0.25 ml injection vehicle consisting of 0.5% w/v sodium carboxymethylcellulose containing 5% w/v mannitol and 0.05% w/v SDS by subcutaneous injection using a 1 cc syringe and a 1 inch, 20-gauge needle. On Day—3 blood was collected from all rats via the tail vein. Rats were bled periodically via the lateral tail vein. Plasma samples were extracted, derivatized, and 2ME concentration was measured using a qualified gas chromatography-mass spectroscopy detection method. Plasma concentrations versus time are plotted in FIG. 2.

[3] = In vivo pharmacokinetics of 2ME crystal preparation with broad size distribution (Example 2), plasma 2ME by gas chromatography-mass detection; details: rat, 5 mg/rat subcutaneous
Method: The material generated in Example 1 was ground in a mortar and pestle, sieved through a 180 um screen, and the particle size distribution of the sieved material was measured on a Coulter LS13320 Particle Size analyzer.
On day 0, animals in all treatment groups received 5 mg/rat of 2ME in 0.25 ml injection vehicle consisting of 2.0% w/v sodium carboxymethylcellulose containing 0.01% w/v Tween 80 and 0.1% w/v SDS by subcutaneous injection using a 1 cc syringe and a 1″, 20-gauge needle. On Day—3 blood was collected from all rats via the tail vein. On Days 1, 3, 7, 21, 28, and 35, all rats were bled via the lateral tail vein. Plasma samples were extracted, derivatized, and 2ME concentration was measured using a qualified gas chromatography-mass detection method. The plasma concentration profile of 2ME released from crystals with a broad size distribution is characterized by an initial burst followed by sustained blood levels of approximately 5 ng/ml between days 3 and 28.

[4] = In vivo pharmacokinetics of 2ME particles ranging from 90 to 180 micrometers (Example 7); details: rat, 5 mg/rat subcutaneous, particles 90 to 180 micrometers
Method: as §1, with “A portion of the 2-methoxyestradiol prepared in Example 1 was ground in a mortar and pestle and sieved through stainless steel screens to generate a population of particles ranging from 90 to 180 micrometers. On day” for “On day”, “in FIG. 3.” for “in FIG. 2.”

[5] = rat, 16 mg subcutaneous in 2.5% w/v sodium carboxymethylcellulose, after 15 days

Structure (SMILES): C[C@]12CC[C@@H]3c4cc(O)c(O)cc4CC[C@H]3[C@@H]1CC[C@@H]2O [2-hydroxyestradiol]
- water solubility [1]: approximately 0.155 mg/ml

- plasma 2ME concentrations [2]: fallen to zero
- sustained blood levels of 2ME ([3]; crystals 48.98±36.95 μm, between days 3 and 28): approximately 5 ng/ml
- 2ME blood levels ([3]; crystals 48.98±36.95 μm, by day 35): fallen to zero
- plasma concentration profile, initial phase ([3]; crystals with a broad size distribution): initial burst
- 2ME in plasma ([4]; day 51): still measurable
- initial plasma concentrations ([4]; first week): low initial plasma concentrations
Structure (SMILES): COc1cc2c(cc1O)CC[C@@H]1[C@@H]2CC[C@]2(C)[C@@H](O)CC[C@@H]12 [2ME, 2-methoxyestradiol]

Structure (SMILES): COc1cc2c(cc1OC(=O)c1ccccc1)CC[C@@H]1[C@@H]2CC[C@]2(C)[C@@H](O)CC[C@@H]12 [3-benzoyl-2-methoxyestradiol]
- water solubility of the esterified compound, fold lower than parent estradiol metabolite ([1]; same conditions as parent): approximately 3 fold
- release of the injected dose (chromatographic analysis of dissected injection site) [5]: 6.2%±1.2
